Key:
[1] = test system: cerebral cortical neurons; test: Protective activity for neuronal cells against iron-induced damage (LDH release); type: cell-based, rat; conditions: 30 μM compound, 50 uM FeSO4, 24 hours, LDH reduction rate vs control
Description: From the brains of 17-18 day-old rat embryos, cerebral cortical neurons were isolated and then, cultured at 37° C. for 7-9 days in a 5% CO2 incubator. The cortical cell cultures were washed twice with a minimum essential medium (MEM) to reduce the serum concentration to 0.2% and pre-treated for 30 min with 30 μM of each of test compounds. For the experiments, the test compounds were dissolved in DMSO and diluted in a medium. At this time, the final concentration of DMSO was not allowed to exceed 0.2%. For a control group, only vehicle was applied.
After the pre-treatment with test compounds or vehicle, FeSO4 was added to a final concentration of 50 uM, and the cultures were maintained for 24 hours in a CO2 incubator. During incubation, lactate dehydrogenase (LDH) was released into the medium upon neuronal death by the oxidative toxicity of iron. The extent of neuronal damage was assessed by measuring the amount of LDH released into the media. The protective effect of the compounds of interest on neurons was evaluated by calculating the LDH reduction rate of treatment group compared with that of the control group.

rat brain homogenate = test: Inhibitory activity against iron-induced lipid peroxidation (MDA quantification); type: biochemical; conditions: 100 μM compound, 400 μM FeCl2, 37° C., 30 min, MDA reduction rate vs control
Description: The rat brain was homogenized in a Krebs buffer (15 mM HEPES, 10 mM glucose, 140 mM NaCl, 3.6 mM KCl, 1.5 mM CaCl2, 1.4 mM KH2PO4, 0.7 mM MgCl2, pH 7.4) and the supernatant separated by centrifugation at 12,000 rpm for 10 min was used for further experiments. FeCl2 was added to a final concentration of 400 μM in the brain homogenate which was then allowed to stand at 37° C. for 30 min for the facilitation of oxidation. Each of the test compounds was added at a concentration of 100 μM and vehicle was used as a control.
Iron facilitates the oxidation of the brain homogenate to produce malondialdehyde (MDA), a lipid peroxidation product. Thus, the lipid peroxidation was determined by MDA quantification. The inhibitory effect of the test compounds against the lipid peroxidation was evaluated by calculating MDA reduction rate of the test compounds compared with that of the control group.
Typically, the MDA quantification is achieved by reacting samples with 2-thiobarbituric acid (TBA) and measuring the absorbance at 530 nm. However, this method is unsuitable to treat samples on a large scale because of a boiling step. Thus, in this experiment, N-methyl-2-phenylindole was used instead of TBA. […] Bioxytech^R LPO-586 Kit was used for MDA quantification.

in vivo = conditions: SD, rat, po, 1 g/kg
Description: In this test six-week old SPF SD rats were used with two rats assigned to each group. […] The dosing volume was 10 ml/kg. […] All survivors at the end of the observation period underwent laparotomy under ether anesthesia and the blood samples were taken from the abdominal aorta for hematological tests and biochemical analysis. After sacrificing the animals, autopsy was performed for macroscopic observation of the organs and tissues. Tissue samples of vital organs from macroscopic legion were removed and fixed in 10% neutral buffered formalin solution, then processed by standard procedures for histopathology and examined under light microscope.

[2] = test system: isolated rat aorta constricted with methoxamine; test: Vasodilation effects on isolated aorta of rats (methoxamine-constricted rings); conditions: isolated rat aorta constricted with methoxamine (3 μM); 50% relaxation
Description: Male Sprague-Dawly rats (350-450 g, obtained from the Experimental Animal Team of the Korea Research Institute of Chemical Technology) were knocked unconscious by hitting the occipital region, sacrificed by cervical dislocation, and underwent thoracotomy. After being quickly removed, the thoracic aorta was deprived of the adipose tissue and cut into aortic rings of 3 mm width. The aorta was lightly rubbed with cotton club soaked in a modified Krebs Henseleit buffer (Physiological Salt Solution, PSS) to remove the inner epithelial layer therefrom.
Thereafter, 3×10^−6 M methoxamine was applied to induce an intensive constriction in the vascular smooth muscle. When the vasoconstriction induced by the methoxamine was reached and maintained to a maximum, test compounds and controls were cumulatively added to the organ baths in concentrations of 1, 3, 10 and 30 μM so as to examine the vasodilation effect.
The change rate of constriction by the addition of the drugs compared to the maximal constriction induced by methoxamine was calculated to plot a concentration-relaxation response curve.

isolated rat hearts = test: Cardioprotective activity in isolated ischemic heart models of rats (Langendorff, global ischemia/reperfusion); conditions: 10 μM; for LDH (U/g): cumulative reperfusion LDH release; for EDP (MmHg): left ventricular end-diastolic pressure after 30 min reperfusion; for LDVP × HR (%): reperfusion double product as % of pretreatment DP, 30 min global ischemia, 30 min reperfusion; for TTC: time to contracture during global ischemia
Description: Male Sprague-Dawley rats weighing 300-450 g were anesthetized with sodium pentobarbital (100 mg/kg, i.p.). The tail vein was injected with heparin (1,000 U/kg) and then the trachea was intubated. […] A latex balloon filled with solvent (ethanol: water=1:1 (v/v)) and attached to a metal cannula was placed in the left ventricle through pulmonary vein and connected to a Isotec pressure transducer (H.S.E., Germany) for measurement of left ventricular pressure (LVP). […] Then, baseline contractile function, heart rate (HR), and coronary flow (CF) (extracorporeal electromagnetic flow probe, Narco Bio-System, U.S.A.) were measured. Cardiac contractile function was calculated by subtracting LVEDP from LV peak systolic pressure (LVSP), yielding developed pressure (LVDP). Double product (DP), another important parameter for assessing cardiac performance, was calculated by multiplying HR by LVDP. Throughout the experiment, all these parameters were measured, and calculated before and 10 min after pretreatment with each compound and 30 min after the onset of reperfusion with buffer. Data on reperfusion DP were further expressed as the percentage to pretreatment DP.
We then rendered the hearts globally ischemic by completely shutting off the perfusate for 30 min. Severity of ischemia was determined as the time to contracture (TTC, min) during global ischemia in which the first 5 mmHg increase in EDP was observed. Then, the hearts were reperfused and, 30 min later, contractile function (LVDP, DP) and cumulative reperfusion lactate dehydrogenase (LDH) release were measured. LDH was measured as a sensitive index for loss of cell viability with a kit supplied by Boerhinger Mannheim based on the technique of Wroblewski and LaDue [F. Wroblewski and JS.

[3] = test system: ischemic myocardium damage model of anesthetized rats; test: Cardioprotective activity in ischemic heart models of rats (LAD occlusion/reperfusion, anesthetized rats); type: in vivo, rat; conditions: rat in vivo, 0.3 mg/kg i.v.; for AAR/LV (%): area at risk per left ventricle; for IZ/AAR (%): myocardial infarction rate to area at risk, 45 min occlusion, 90 min reperfusion
Description: After trachetomy, the rats were rendered to respire artificially at a rate of 60/min with a stroke volume of 10 ml/kg. Cannulars were inserted into the fermoral vein and the fermoral artery and used for drug administration and blood pressure measurement, respectively.
In the ischemic myocardial injury models, the body temperature has an important influence on the results. To avoid the change in the body temperature, a body temperature measuring probe was inserted into the rectum of each rat and the body temperature was constantly kept at 37° C. with the aid of a homeothermic blanket control unit.
Afterwards, during testing, a continuous measurement was made of the mean arterial blood pressures and heart rates from the rats. For the measurement of the blood pressure, a pressure transducer, such as that manufactured by Grass Ins., MA, U.S.A., identified as Model Statham P23XL, was used.
The heart rate was measured by a tachometer, such as that manufactured by Gould Inc., Ohio, U.S.A., identified as Biotachometer. In addition, all of the changes occurring were continuously recorded through the Gould 2000 chart recorder, manufactured by Gould Inc.
The left coronary artery was occluded according to the Selye H. method as follows. The rats underwent a left thoracotomy operation for partial opening of the chest and the right-side chest was pressurized by the middle finger of the left hand to push the heart out. Immediately after the left anterior descending coronary artery hereinafter referred to as (LAD) was carefully stitched using a suture needle with 5-0 silk ligature, the heart was then repositioned in the thoracic cavity while both ends of the ligature were situated outside. The opposite ligature ends were passed through a PE tube (PE100, 2.5 cm) and allowed to stand loose for 20 min for stabilization. Via the cannula inserted into the femoral vein, vehicles or drugs were administered into the rats which were rendered to stand for 30 min in order to sufficiently elicit the efficacies of the drugs.
Next, the PE tube which had the doubled strands of the ligature passed therethrough was pushed toward the heart and then, set upright by tightly pulling end regions of the ligature with a hemostatic pincette while pressing the coronary artery.
After the reocclusion of the coronary artery in accordance with the above procedure, the rats were administered with 2 ml of a 1% Evans blue through an intravenous route. Subsequently, an excess of pentobarbital was intravenously injected to kill the rats, after which the heat was removed and then, deprived of the right ventricle and both atria. The left ventricle was cut horizontally to the heart apex into 5 or 6 slices which were weighed. From the surface of each slice, images were input with the aid of a Hi-scope into a computer installed with an image analyzing program (Image Pro Plus). From the images input into the computer, the area of the normal blood stream tissue region which appeared blue in a computer monitor and the area which appeared colorless were measured. The percentage of the colorless area to the total area of each slice was calculated and multiplied by the weight of each slice to determine the area at risk (AAR) of each slice. The AAR obtained from each slice was summed for all slices and the total AAR was divided by the total weight of the left ventricle to yield % AAR, as shown in the following mathematical formula 1:
AAR(%)=(summed AAR for all slices)/(total weight of left ventricle)×100 [Mathematical Formula 1]
During this fixation, 2,3,5-triphenyltetrazolium chloride was reduced into formazan dye by the myocardial dehydrogenase and its cofactor NADH, so that the normal regions of the tissue were colored brick-red. In contrast, the infarct zones of the tissue were deficient in the dehydrogenase and its cofactor, so that no reduction occurred on the 2,3,5-triphenyltetrazolium, allowing the color to remain unchanged.

Row | Compound | % Protection [1] | LD50 (in vivo) | IC50 [2] | LDH (U/g) (isolated rat hearts) | EDP (MmHg) (isolated rat hearts) | LDVP × HR (%) (isolated rat hearts) | TTC (isolated rat hearts) | AAR/LV (%) [3] | IZ/AAR (%) [3] | further results
1 | CCOC(=O)c1cc2ccccc2n1[C@@H]1c2cc(N)ccc2O[C@](C)(C(OC)OC)[C@H]1O [Example 53, 1-[(2S, 3S, 4R)-6-amino-3,4-dihydro-2-dimethoxymethyl-3-hydroxy-2-methyl-2H-1-benzopyran-4-yl]-1H-indole-2-carboxylic acid ethyl ester] |  |  |  |  |  |  |  |  |  | % Protection ([1]; listed as EX. 53): 94%; % Inhibition (rat brain homogenate; listed as EX. 53): 91%
2 | CCOC(=O)c1cc2ccccc2n1[C@H]1c2cc(N)ccc2O[C@](C)(C(OC)OC)[C@@H]1O [Example 52, 1-[(2S, 3R, 4S)-6-amino-3,4-dihydro-2-dimethoxymethyl-3-hydroxy-2-methyl-2H-1-benzopyran-4-yl]-1H-indole-2-carboxylic acid ethyl ester] | 100% |  |  |  |  |  |  |  |  | % Inhibition (rat brain homogenate; listed as EX. 52): 95%
3 | COC(OC)[C@@]1(C)Oc2ccc([N+](=O)[O-])cc2[C@H](N2c3ccccc3C[C@H]2C(=O)OC(C)C)[C@H]1O [Example 10, 1-[(2S, 3R, 4S)-3,4-dihydro-2-dimethoxymethyl-3-hydroxy-2-methyl-6-nitro-2H-1-benzopyran-4-yl]-(2S)-2,3-dihydro-1H-indole-2-carboxylic acid isopropyl ester] |  | > 1000 mg/kg |  |  |  |  |  |  |  | 
4 | CCCOC(=O)[C@H]1Cc2ccccc2N1[C@@H]1c2cc([N+](=O)[O-])ccc2O[C@@](C)(C(OC)OC)[C@H]1O [Example 34, 1[-(2R, 3S, 4R)-3,4-dihydro-2-dimethoxymethyl-3-hydroxy-2-methyl-6-nitro-2H-1-benzopyran-4-yl]-(2R)-2,3-dihydro-1H-indole-2-carboxylic acid n-propyl ester] |  | > 1000 mg/kg |  |  |  |  |  |  |  | 
5 | CCOC(=O)[C@@H]1Cc2ccccc2N1[C@H]1c2cc([N+](=O)[O-])ccc2O[C@](C)(C(OC)OC)[C@@H]1O [Example 2, 1-[(2S, 3R, 4S)-3,4-dihydro-2-dimethoxymethyl-3-hydroxy-2-methyl-6-nitro-2H-1-benzopyran-4-yl]-(2S)-2,3-dihydro-1H-indole-2-carboxylic acid ethyl ester] | 79% | > 1000 mg/kg | 24.3 µM | 17.8 U/g | 25.7 MmHg | 55.1% | 22.6 min | 32.6% | 39.1% | 
6 | CCOC(=O)[C@H]1Cc2ccccc2N1[C@@H]1c2cc([N+](=O)[O-])ccc2O[C@@](C)(C(OC)OC)[C@H]1O [Example 30, 1-[(2R, 3S, 4R)-3,4-dihydro-2-dimethoxymethyl-3-hydroxy-2-methyl-6-nitro-2H-1-benzopyran-4-yl]-(2R)-2,3-dihydro-1H-indole-2-carboxylic acid ethyl ester] |  | > 1000 mg/kg | > 30 µM | 9.2 U/g | 11.3 MmHg | 64.1% | 27.1 min | 33.6% | 38.9% | 

— patent US6413983B1, “Benzopyranyl heterocycle derivatives, process for preparation thereof, and pharmaceutical compositions containing them” (Dongbu Hannong Chemical Co. Ltd., priority 2000, dated 2002)
